The source of these data is patent publication US20160143929A1, “ADMINISTRATION OF GL[…] THE TREATMENT OF CANCER” (Threshold Pharmaceuticals, Inc., priority 2008, published 2016).

One data set relates to solid tumors. The experiment in a line: Phase I study: tumor response by RECIST. The class given is in vivo, human. As for the experimental part: (§1) A medical history was obtained from each patient, and physical examinations and routine laboratory evaluations were performed before treatment initiation and weekly thereafter, Chest and other relevant x-rays were obtained during screening and after alternate cycles of treatment. Adverse events were monitored and recorded throughout the study and were graded according to NCI-CTC, version 3.0. The tumor response was assessed for measurable target lesions according to Response Evaluation Criteria in Solid Tumors (RECIST).
(§2) Antiemetic premedication was not mandatory in the protocol.

The nature of data set [1]: Phase I dose-escalation study: safety, DLT, MTD and RD. The class given is in vivo, human. As for the experimental part:
as §1, §2
The starting dose of Glufosfamide was 3200, which was increased to 4500 and then to 6000 in subsequent cohorts of at least three patients. The following adverse events during cycle 1 were defined as DLTs (dose-limiting toxicities): neutropenia of grade 4 (ANC of <500/uL) for >7 days; febrile neutropenia (fever of >38 degrees C. with an ANC of <1000/uL); thrombocytopenia (platelet count of <25,000/uL); nausea or vomiting of grade > (or equal to) 3 despite maximal antiemetic therapy; and any other nonhematologic toxicity of grade > (or equal to) 3 considered drug-related. If any patient experienced a DLT during the first cycle, three additional patients were treated at the same dose. Patients who experienced a DLT could continue Glufosfamide therapy at the preceding dose level. Treatment in subsequent courses was reinitiated only after hematologic recovery (ANC of > (or equal to) 1500/uL, platelet count of > (or equal to) 100,000/uL) and resolution of all other toxicities to grade < (or equal to) 1 or baseline intensity. The MTD (maximum tolerated dose) was defined as the dose at which two or more patients experienced a DLT in the first cycle. The RD (recommended dose) was defined as the dose level immediately below the MTD. In accordance with the methods of the invention, both the RD and MTD (and intermediate doses) can be administered to patients, with the RD preferred for Japanese and other patients of Asian origin and the MID preferred for other patients.

The nature of data set [2]: Phase I study: pharmacokinetics of Glufosfamide by 6 h intravenous infusion. Particulars: over the dose range studied, 3200-6000 mg/m^2. The source says:
Patients were ineligible if they had symptomatic brain metastasis; other nonmalignant systemic disease; an active, uncontrolled infection; preexisting nephrotoxicity of grade 3 or 4 (NCI Common Toxicity Criteria—NCI-CTC) resulting from previous therapy; or infection with HIV, HBV, or HCV. They were also ineligible if they were pregnant or nursing, or if they required steroid therapy.
This open-label, dose-escalation Phase I study was based on intravenous infusion of the drug in three cohorts of Japanese subjects with malignant solid tumors. Glufosfamide was administered intravenously over 6 h in a total volume of 1000 mL of normal saline at doses of 3200, 4500, and 6000 mg/m^2. One-quarter of the dose was administered during the first 30 min at a rate of 500 mL/h, with the remainder of the dose being administered over the subsequent 330 min at a rate of 136 mL/h. Glufosfamide was administered on day 1 once every 3 weeks. Antiemetic premedication was not mandatory in the protocol. Granulocyte colony-stimulating factor (G-CSF) was administered for febrile neutropenia, sepsis with neutropenia, or recurrent neutropenia of grade 4.
Pharmacokinetic sampling was performed for the first and second cycles.

In the next data set the test system is pancreatic cancer. Particulars: pancreatic cancer patients relapsed after or not responding to gemcitabine; cited from earlier work.
The conditions of data set [3]: Caucasian patients, intravenous infusion; cited from earlier work.

As to `O=P(NCCCl)(NCCCl)O[C@@H]1O[C@H](CO)[C@@H](O)[C@H](O)[C@H]1O` [Glufosfamide, beta-D-glucosyl-isophosphoramide mustard], in the data set on solid tumors (among thirteen evaluable patients, advanced gall bladder cancer, 4500 mg/m^2, after two cycles), the partial response entry is “one partial response”. In addition, the “subjects showing stabilization of disease” value with solid tumors (among thirteen evaluable patients, colorectal (4), gastric, thymic cancer, thymoma, non-small cell lung cancer) is given as “eight subjects”. For the same molecule, the “patients with evidence of antitumor activity” value in the data set on solid tumors (among thirteen patients evaluable for response) is on record as “nine patients”. Besides, in the data set on solid tumors (person, advanced gall bladder cancer, 4500 mg/m^2, two cycles), the “duration of partial response” value is listed as “greater than five months”. Besides, in data set [1] (4500 mg/m^2, cycle 2, without infection, short-lived, 13 patients), the “patients with neutropenia of grade 4” value is given as “only one patient”. For the same molecule, the “patients with grade 4 anemia requiring red blood cell transfusion” value in data set [1] (4500 mg/m^2, cycle 3) is “one patient”. Also, the “patients with DLTs” value in data set [1] (6000 mg/m^2, cycle 1, grade 3 metabolic acidosis, hypophosphatemia, hypokalemia) is reported as “two of three treated patients experienced DLTs”. Further, the “MTD (maximum tolerated dose)” value in data set [1] (Japanese patients, 6 h iv infusion day 1 every 3 weeks, dose at which two or more patients had a DLT in cycle 1) is listed as 6000 mg/m^2. The “RD (recommended dose)” value in data set [1] (Japanese patients, 6 h iv infusion every 3 weeks, dose level immediately below MTD) was 4500 mg/m^2. Besides, in data set [1] (all dose levels, generally transient and reversible), the predominant nonhematologic toxicities entry was “fatigue, nausea, a high urinary concentration of beta 2 microglobulin, hypophosphatemia, hypokalemia, and metabolic acidosis”. Besides, in data set [1] (two lowest doses (3200 and 4500 mg/m^2), cycle 1), the DLTs result is given as “No DLTs occurred”. Also, the “dose linearity of pharmacokinetics” value in data set [2] was “linear pharmacokinetics”. For the same molecule, in the data set with pancreatic cancer, the “Phase III trial outcome” value was “did not meet its endpoints” and the “anticancer activity in Phase III trial” value is “did exhibit anticancer activity in some patients”. The “dose that is well tolerated” value in data set [3] is 6000 mg/m^2.
Turning to `O=P(O)(NCCCl)NCCCl` [IPM, isophosphoramide mustard], the “dose linearity of pharmacokinetics” value in data set [2] is on record as “linear pharmacokinetics”.
